Reference: ChEMBL document CHEMBL4765274, “The development of advanced structural framework as multi-target-directed ligands for the treatment of Alzheimer's disease” (Eur J Med Chem, 2020)
Active and inactive are the calls of the source. The rule behind the calls is not given here.

Key:
Danio rerio [1] = species on record: Danio rerio; experiment: Antialzheimer activity in amyloid beta (1 to 40 residues)-induced zebra fish AD model assessed as reduction in vascular injury at 0.26 ug/ml relative to control; type: functional; parameters: scale not given: the % may be the effect or the level left; conditions: dose 0.26 µg/ml
[2] = Selectivity index, ratio of IC50 for inhibition of equine serum BChE to IC50 for inhibition of electric eel AChE
Danio rerio [3] = species on record: Danio rerio; experiment: Antialzheimer activity in Alcl3-induced zebra fish AD model assessed as increase in motility at 0.26 ug/ml relative to control; type: functional; conditions: dose 0.26 µg/ml
[4] = Toxicity in 2 dpf zebra fish assessed as small brain at 25 ug/ml after 3 days relative to control; type: tissue-based, Danio rerio; conditions: zebrafish, 72 h, at 25 µg/mL, time 3 day
Cholinesterase = Cholinesterase (Homo sapiens, UniProt P06276); experiment: Inhibition of human BChE assessed as residual activity at IC50 concentration relative to control
Cholinesterase, sequence (P06276 whole entry): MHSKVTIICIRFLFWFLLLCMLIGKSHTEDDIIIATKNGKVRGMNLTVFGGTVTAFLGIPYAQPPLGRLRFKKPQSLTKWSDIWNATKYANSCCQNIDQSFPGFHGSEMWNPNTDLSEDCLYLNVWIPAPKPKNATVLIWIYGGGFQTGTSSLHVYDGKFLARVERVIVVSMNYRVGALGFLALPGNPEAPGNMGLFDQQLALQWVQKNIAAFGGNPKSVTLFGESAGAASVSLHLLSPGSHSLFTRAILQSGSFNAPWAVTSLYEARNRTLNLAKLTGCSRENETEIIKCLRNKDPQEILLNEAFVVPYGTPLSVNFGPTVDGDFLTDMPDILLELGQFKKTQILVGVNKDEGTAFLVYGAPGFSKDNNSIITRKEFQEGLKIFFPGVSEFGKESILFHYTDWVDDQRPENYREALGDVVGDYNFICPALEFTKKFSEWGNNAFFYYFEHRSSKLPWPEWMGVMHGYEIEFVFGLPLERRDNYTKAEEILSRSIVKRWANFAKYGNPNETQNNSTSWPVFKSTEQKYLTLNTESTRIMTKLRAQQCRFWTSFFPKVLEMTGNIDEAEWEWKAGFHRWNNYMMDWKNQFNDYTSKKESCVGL

Acetylcholinesterase [5] = target: Acetylcholinesterase (Electrophorus electricus, UniProt O42275); experiment: Inhibition of electric eel AChE by Ellman's method
Acetylcholinesterase (Electrophorus electricus, UniProt O42275), sequence (O42275 whole entry): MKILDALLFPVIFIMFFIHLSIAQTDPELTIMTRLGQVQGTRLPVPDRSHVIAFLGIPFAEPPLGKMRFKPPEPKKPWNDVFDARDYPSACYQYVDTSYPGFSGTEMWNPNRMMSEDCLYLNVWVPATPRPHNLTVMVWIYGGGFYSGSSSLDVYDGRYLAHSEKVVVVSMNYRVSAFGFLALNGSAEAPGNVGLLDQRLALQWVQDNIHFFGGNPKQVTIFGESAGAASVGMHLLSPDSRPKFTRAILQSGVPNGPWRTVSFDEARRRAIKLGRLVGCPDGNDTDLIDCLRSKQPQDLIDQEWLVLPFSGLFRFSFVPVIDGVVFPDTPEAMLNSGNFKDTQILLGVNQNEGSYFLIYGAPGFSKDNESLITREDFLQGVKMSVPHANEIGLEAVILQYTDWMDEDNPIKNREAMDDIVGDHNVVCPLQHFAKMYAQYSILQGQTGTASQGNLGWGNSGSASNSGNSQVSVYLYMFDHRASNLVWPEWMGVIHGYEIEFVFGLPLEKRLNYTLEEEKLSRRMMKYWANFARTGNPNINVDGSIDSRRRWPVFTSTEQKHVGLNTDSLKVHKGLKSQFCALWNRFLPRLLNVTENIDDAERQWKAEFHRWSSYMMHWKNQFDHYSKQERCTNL

Danio rerio [6] = species on record: Danio rerio; experiment: Antialzheimer activity in Alcl3-induced zebra fish AD model assessed as increase dyskinesia recovery rate at 0.26 ug/ml relative to control; type: functional; conditions: dose 0.26 µg/ml
Mus musculus [7] = experiment: Antialzheimer activity in scopolamine-induced Kunming mouse model of memory impairment assessed as latency time at 50 mg/kg , po by step-down passive avoidance test (reference value: 125.65 sec); type: functional
Danio rerio [8] = species on record: Danio rerio; experiment: Antialzheimer activity in Alcl3-induced zebra fish AD model assessed as increase in motility; type: functional, organism-based
Mus musculus [9] = experiment: Antialzheimer activity in scopolamine-induced Kunming mouse model of memory impairment assessed as latency time at 5 mg/kg , po by step-down passive avoidance test (reference value: 125.65 sec); type: functional
[10] = Metal chelating activity assessed as Al3+-compound complex formation in water buffer at pH 7.4 at 37.5 uM by UV-Visible spectra analysis
[11] = Inhibition of Cu2+-induced amyloid beta (1 to 42 residues) (unknown origin) aggregation at 25 uM after 24 hrs by thioflavin-T fluorescence method relative to control
[12] = Effect on GFP expression in mouse HT-22 cells expressing pEGFP-N1 at 10 uM after 24 hrs by flow cytometric analysis; type: ADME, cell-based; conditions: ht-22, 24 h
[13] = Metal chelating activity assessed as Fe2+-compound complex formation in methanol at 37.5 uM by UV-Visible spectra analysis
[14] = Antioxidant activity assessed as trolox equivalent of AAPH radical scavenging activity measured every min for 4 hrs by ORAC-FL assay relative to trolox; type: functional
[15] = Inhibition of Cu2+-induced amyloid beta (unknown origin) aggregation after 24 hrs by TEM analysis
HT-22 [16] = experiment: Activation of ubiquitin-proteasome system in mouse HT-22 cells expressing pRK5-GFP-Tau P301L mutant assessed as increase in tau degradation by measuring reduction in GFP level after 24 hrs by fluorescence microscopic method; type: cell-based; conditions: filed as activator, dose 2.5-20 µM
[17] = Toxicity in 3 dpf zebra fish assessed as mortality at 200 ug/ml (reference value: 0%); parameters: species or system Danio rerio; conditions: zebrafish, at 200 µg/mL, read-out: Activity
[18] = Metal chelating activity assessed as Al3+-compound complex formation in PBS buffer at pH 7.4 at 37.5 uM by UV-Visible spectra analysis
[19] = Metal chelating activity assessed as Cu2+-compound complex formation in water at 37.5 uM by UV-Visible spectra analysis
[20] = Drug metabolism in human liver microsomes assessed as metabolite formation by UPLC-TOF analysis; type: ADME, Microsome
Danio rerio [21] = species on record: Danio rerio; experiment: Antialzheimer activity in amyloid beta (1 to 40 residues)-induced zebra fish AD model assessed as reduction in vascular injury at 0.78 ug/ml relative to control; type: functional; parameters: scale not given: the % may be the effect or the level left; conditions: dose 0.78 µg/ml
[22] = Toxicity in 2 dpf zebra fish assessed as misshapen brain at 25 ug/ml after 3 days relative to control; type: tissue-based, Danio rerio; conditions: zebrafish, 72 h, at 25 µg/mL, time 3 day
[23] = Toxicity in 2 dpf zebra fish assessed as degenerating muscle within the somites at 25 ug/ml after 3 days relative to control; parameters: species or system Danio rerio; conditions: zebrafish, 72 h, at 25 µg/mL, time 3 day
[24] = Metal chelating activity assessed as Zn2+-compound complex formation in water at 37.5 uM by UV-Visible spectra analysis
HT-22 [25] = experiment: Activation of ubiquitin-proteasome system in mouse HT-22 cells expressing pRK5-GFP-Tau P301L mutant assessed as increase in tau degradation by measuring reduction in GFP level at 2.5 to 20 uM after 24 hrs by flow cytometric analysis; type: cell-based; conditions: filed as activator, dose 2.5-20 µM
Acetylcholinesterase [26] = target: T1, Acetylcholinesterase (Homo sapiens, UniProt P22303); experiment: Mixed type inhibition of human AChE using acetylthiocholine as substrate by Line-weaver Burk plot analysis
T1 sequence (P22303 whole entry): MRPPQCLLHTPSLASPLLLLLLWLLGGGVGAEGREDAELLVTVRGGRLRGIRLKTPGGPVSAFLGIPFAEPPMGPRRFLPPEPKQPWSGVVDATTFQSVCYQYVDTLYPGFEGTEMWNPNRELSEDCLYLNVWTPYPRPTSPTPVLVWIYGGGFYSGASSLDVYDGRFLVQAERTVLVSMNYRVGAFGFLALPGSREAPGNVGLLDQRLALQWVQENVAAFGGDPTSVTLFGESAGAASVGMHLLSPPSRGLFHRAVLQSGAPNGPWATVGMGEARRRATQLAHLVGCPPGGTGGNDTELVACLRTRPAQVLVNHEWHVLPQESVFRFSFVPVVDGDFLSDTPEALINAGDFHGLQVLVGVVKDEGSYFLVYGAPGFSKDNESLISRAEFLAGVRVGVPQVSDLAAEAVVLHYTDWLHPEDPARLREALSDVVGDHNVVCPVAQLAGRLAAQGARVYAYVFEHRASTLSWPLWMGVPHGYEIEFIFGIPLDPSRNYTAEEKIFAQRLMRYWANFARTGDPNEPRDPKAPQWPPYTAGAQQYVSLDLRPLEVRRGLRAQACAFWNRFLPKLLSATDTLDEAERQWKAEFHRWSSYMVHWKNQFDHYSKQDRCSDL

Danio rerio [27] = species on record: Danio rerio; experiment: Antialzheimer activity in Alcl3-induced zebra fish AD model assessed as increase dyskinesia recovery rate at 0.09 ug/ml relative to control; type: functional; conditions: dose 0.09 µg/ml
Mus musculus [28] = experiment: Antialzheimer activity in scopolamine-induced Kunming mouse model of memory impairment assessed as total mapped in brain hippocampus at 5 mg/kg , po by illumina sequencing method (reference value: 97.13%); type: functional
[29] = Toxicity in 2 dpf zebra fish assessed as bradycardia at 25 ug/ml after 3 days relative to control; parameters: species or system Danio rerio; conditions: zebrafish, 72 h, at 25 µg/mL, time 3 day
Mus musculus [30] = experiment: Antialzheimer activity in scopolamine-induced Kunming mouse model of memory impairment assessed as total reads in brain hippocampus at 5 mg/kg , po by illumina sequencing method (reference value: 100%); type: functional
Danio rerio [31] = species on record: Danio rerio; experiment: Antialzheimer activity in Alcl3-induced zebra fish AD model assessed as increase dyskinesia recovery rate; type: functional, organism-based
[32] = Drug metabolism in mouse feces assessed as metabolite formation by UPLC-TOF analysis; type: ADME
HT-22 [33] = experiment: Activation of ubiquitin-proteasome system in mouse HT-22 cells expressing pRK5-GFP-Tau assessed as increase in tau degradation by measuring reduction in GFP level after 24 hrs by flow cytometric analysis; type: cell-based; conditions: filed as activator, dose 2.5-20 µM
[34] = Metal chelating activity assessed as Zn2+-compound complex formation in PBS buffer at pH 7.4 at 37.5 uM by UV-Visible spectra analysis
[35] = Toxicity in 2 dpf zebra fish at 25 ug/ml after 3 days; parameters: species or system Danio rerio; conditions: zebrafish, 72 h; dose 25 µg/ml, time 3 day
Danio rerio [36] = species on record: Danio rerio; experiment: Antialzheimer activity in Alcl3-induced zebra fish AD model assessed as increase in motility at 0.09 ug/ml relative to control; type: functional; conditions: dose 0.09 µg/ml
Acetylcholinesterase [37] = target: T1, Acetylcholinesterase; experiment: Reversible inhibition of human AChE assessed as residual activity at 0.1 times of IC50 concentration after 120 mins relative to control
[38] = Toxicity in 3 dpf zebra fish assessed as mortality at 3.125 ug/ml (reference value: 0%); parameters: species or system Danio rerio; conditions: zebrafish, at 3.125 µg/mL, read-out: Activity
Danio rerio [39] = species on record: Danio rerio; experiment: Antialzheimer activity in Alcl3-induced zebra fish AD model assessed as increase in motility at 0.78 ug/ml relative to control; type: functional; conditions: dose 0.78 µg/ml
Mus musculus [40] = experiment: Antialzheimer activity in scopolamine-induced Kunming mouse model of memory impairment assessed as uniquely mapped in brain hippocampus at 5 mg/kg , po by illumina sequencing method (reference value: 94.54%); type: functional

SMILES: CCN(CCCCOc1ccc(-c2cc(=O)c3c(O)cc(OCCCCN(CC)Cc4ccccc4)cc3o2)cc1)Cc1ccccc1
- Activity (Danio rerio [1]): 12%
- Ratio IC50 [2]: 2.6
- Activity (Danio rerio [3]): 81%
- Activity [4]: 50%
- Activity (Cholinesterase): 49.7%
- IC50 (Acetylcholinesterase [5]): 3.7 µM
- Activity (Danio rerio [6]): 80%
- Time (Mus musculus [7]): 227.34 s
- Activity (Danio rerio [8]): Dose-dependent effect
- Time (Mus musculus [9]): 261.82 s
- Activity [10]: inactive
- inhibition [11]: 81.3%
- Activity [12]: Non-Toxic
- Activity [13]: Active
- fold change (FC) [14]: 1.2
- inhibition [15]: Active
- Activity (HT-22 [16]): Dose-dependent effect
- mortality at 200 ug/ml [17]: 100%
- Activity [18]: inactive
- Activity [19]: inactive
- Drug metabolism [20]: Metabolite_Detected
- Activity (Danio rerio [21]): 0%
- Activity [22]: 76.7%
- Activity [23]: 33.3%
- Activity [24]: inactive
- Activity (HT-22 [25]): Active
- Ki (Acetylcholinesterase [26]): 0.394 µM
- Activity (Danio rerio [27]): 67%
- Activity (Mus musculus [28]): 97.39%
- Activity [29]: 66.7%
- Activity (Mus musculus [30]): 100%
- Activity (Danio rerio [31]): Dose-dependent effect
- Drug metabolism [32]: Metabolite_Detected
- Activity (HT-22 [33]): Dose-dependent effect
- Activity [34]: inactive
- Activity [35]: Non-Toxic
- Activity (Danio rerio [36]): 72%
- Activity (Acetylcholinesterase [37]): 86.6%
- mortality at 3.125 ug/ml [38]: 100%
- Activity (Danio rerio [39]): 84%
- Activity (Mus musculus [40]): 94.34%
